# pIC50: −log10 of the molar value.
# Tests used:
# U-937 cells = test: Toxic dose assay, viable cell count by trypan blue exclusion at day seven; assay type: cell-based; settings: seven days of treatment, duplicate runs, read-out: IC50 (dose at which the number of viable cells in the treated sample was 50% of that in the control at day seven)
# Protocol: (§1) The AML-like cell lines HL-60 (promyelocytic) and U-937 (promonocytic) were obtained from the ATCC. AML-193 (monocytic) and THP-1 (monocytic) cells were obtained from the RW Johnson Pharmaceutical Research Center, San Diego. Cells were grown in Roswell Park Memorial Institute medium (RPMI) with 20% Fetal Bovine Serum (FBS). AML-193 was also supplemented with granulocyte-macrophage colony-stimulating factor (GM-CSF) (10 ng/ml), insulin (0.005 mg/ml), and transferrin (0.005 mg/ml).
# (§2) The cells of Example 1 were inoculated into 6-well plates at an initial concentration of 1×10^5 cells/ml. (B)-6-[amino(4-chlorophenyl)(1-methyl-1H-imidazol-5-yl)methyl]-4-(3-chlorophenyl)-1-methyl-2(1H)-quinolinone) was added at concentrations ranging form 0.5 to 500 nM in 3 μl of DMSO directly to the culture medium. Control cells from Example 1 were grown in medium alone or in medium supplemented with vehicle (0.1% DMSO). Cell numbers were counted at days four and seven in a hemocytometer and cell viability was determined by trypan blue exclusion assay. The IC50 was defined as the dose at which the number of viable cells in the treated sample was 50% of that in the control at day seven. Calculations were made based on duplicate runs of the experiment. The IC50 of the four cell lines was calculated after seven days of treatment with the FTI.
# HL-60 cells = test: as above; assay type: cell-based; settings: seven days of treatment, duplicate runs, read-out: IC50 (dose at which the number of viable cells in the treated sample was 50% of that in the control at day seven)
# Protocol: as §1, §2
# AML-193 cells = test: as above; assay type: cell-based; settings: seven days of treatment, duplicate runs, read-out: IC50 (dose at which the number of viable cells in the treated sample was 50% of that in the control at day seven)
# Protocol: as §1, §2
# THP-1 cells = test: as above; assay type: cell-based; settings: seven days of treatment, duplicate runs, read-out: IC50 (dose at which the number of viable cells in the treated sample was 50% of that in the control at day seven)
# Protocol: as §1, §2
# [1] = tested on: blast cells in bone marrow; test: Clinical response of AML patients treated with FTI (blast cells in bone marrow aspirates); assay type: in vivo; settings: 600 mg twice daily over a 21 day period
# Text: The therapeutic agents referred to in this specification are FTIs. They take on a multitude of forms but share the essential inhibitory function of interfering with or lessening the farnesylation of proteins implicated in cancer and proliferative diseases. Preferably, the FTIs are those indicated for the treatment of leukemias such as AML. A patient who responds to an FTI is one in whom a reduction of more than 50% of blast cells is seen in bone marrow following treatment with the FTI.
# Bone marrow aspirates were obtained from two patients diagnosed with AML who had been treated with FTI. These AML patients were administered 600 mg (B)-6-[amino(4-chlorophenyl)(1-methyl-1H-imidazol-5-yl)methyl]-4-(3-chlorophenyl)-1-methyl-2(1H)-quinolinone) twice daily over a 21 day period. Bone marrow aspirates were taken at baseline and once a week for the three weeks of treatment. […] Response was determined as a reduction of more than 50% of blast cells in bone marrow aspirates. The aspirates were diluted to 15 ml with PBS and Ficoll-density centrifuged. White blood cells were washed twice with PBS, resuspended in FBS with 10% DMSO and immediately frozen at −80° C. Cells were cryogenically preserved to maintain cell viability. Samples were thawed at 37° C. and 10× volume of RPMI with 20% FBS was added drop-wise over a period of 5 min. […] Cell viability was determined by Trypan Blue assay. […]
# [2] = tested on: AML-like cell lines (AML-193, HL-60, THP-1, U-937); test: Time course assay with cDNA microarray gene expression profiling of treated AML-like cell lines; assay type: cell-based; settings: 100 nM
# Protocol: Duplicate cultures of the cells of Example 1 were inoculated into 6-well plates at an initial concentration of 1×10^5 cells/ml. (B)-6-[amino(4-chlorophenyl)(1-methyl-1H-imidazol-5-yl)methyl]-4-(3-chlorophenyl)-1-methyl-2(1H)-quinolinone) was supplemented at a concentration of 100 nM in 3 μl of DMSO directly to the culture medium. The concentration of 100 nM was chosen for the subsequent time course experiments to normalize the treatment protocol based, in part, on the results of Example 2. Duplicate control cultures were grown in medium containing 0.1% DMSO. Duplicate cultures were harvested daily for a total of six days. Cells were counted, assayed for viability, and total RNA isolated according to the manufacturer's protocol (Qiagen RNeasy). […] RNA was treated with DNase1 (Qiagen DNase1 kit) to remove any residual genomic DNA. Linear amplification of RNA was conducted according to the procedure described in U.S. Pat. No. 5,545,522 to Van Gelder et. al. Aliquots of 5 μg of aRNA were then prepared for hybridization to cDNA arrays. […]
# The arrays contained 7452 cDNAs from the IMAGE consortium (Integrated Molecular Analysis of Genome and their Expression: Research Genetics, Huntsville, Ala.) and Incyte libraries. […] The fluorescence intensity for each spot was analyzed with AUTOGENE software (Biodiscovery, Los Angeles). […]
structure (smiles),measurement,setting,value
Cn1cncc1[C@@](N)(c1ccc(Cl)cc1)c1ccc2c(c1)c(-c1cccc(Cl)c1)cc(=O)n2C [(B)-6-[amino(4-chlorophenyl)(1-methyl-1H-imidazol-5-yl)methyl]-4-(3-chlorophenyl)-1-methyl-2(1H)-quinolinone)],pIC50,U-937 cells,7.36
same,pIC50,HL-60 cells,7.62
same,pIC50,AML-193 cells,6.87
same,pIC50,THP-1 cells,7.72
same,Response (reduction of more than 50% of blast cells in bone marrow aspirates),[1]; AML patient one,responded
same,Response (reduction of more than 50% of blast cells in bone marrow aspirates),[1]; AML patient two,did not respond
same,"Overall change in gene expression, treated versus control samples from the same day (scatter-plot correlation)",[2],no gross changes in gene expression
